Source: paper PMC8591608, “DNDI-6148: A Novel Benzoxaborole Preclinical Candidate for the Treatment of Visceral Leishmaniasis” (Journal of Medicinal Chemistry, 2021)

Legend:
[1] = tested on: CPSF3 (Asn219His)-overexpressing L. donovani promastigotes; experiment: Drug sensitivity, CPSF3 (Asn219His)-overexpressing L. donovani promastigotes; assay type: cell-based; details: for EC50: Leishmania donovani
Protocol: (§1) The clonal L. donovani cell line LdBOB (derived from MHOM/SD/62/1S-CL2D) was grown as promastigotes at 28 °C, as described previously. Bloodstream form T. brucei MiTat 1.2 clone 221a and its derived subline, 2T1, were cultured at 37 °C in the presence of 5% CO2 in HMI9-T medium, as described previously. T. brucei cell lines overexpressing CPSF3 and overexpressing a mutated version of CPSF3 (Asn232His) were generated as part of a previous study and cultured as described.[19]
(§2) L. donovaniCPSF3 gene (LdBPK_343210.1) was custom synthesized by GeneArt and ligated into the pIR1SAT vector via BglII restriction sites. Using the Q5 mutagenesis kit (NEB) and the pIR1SAT-LdCPSF3^WT construct as a template, mutations encoding A655C and Asn219His change to CPSF3^WT were introduced. Mutations were introduced using the specific primers 5′-GAGTACACGGCATCCGC-3′ and 5′-[…]-3′ and as per manufacturers’ instructions. Wild-type and mutated pIR1SAT constructs were digested with SwaI and transfected into L. donovani promastigotes, as previously described. Resistant clones were selected with nourseothricin (100 μg/mL), and two clones per transfection were selected for further study.
(§3) Drug sensitivity assays with wild-type and transgenic T. brucei and L. donovani cell lines were carried out as previously described.[31],[32]

PMM cytotoxicity assay = assay type: cell-based; details: mouse, primary peritoneal mouse macrophages (PMM); for EC50 at 3 days: Table 2, geometric mean of at least three independent assays
Protocol: (§4) Primary peritoneal mouse macrophages (PMM) were collected two days after peritoneal stimulation with a 2% potato starch suspension. MRC5SV2 cells (diploid human embryonic lung fibroblasts) were cultured in minimal essential medium (MEM) containing Earle’s salts, supplemented with L-glutamine, NaHCO3, and 5% inactivated fetal calf serum. All cultures and assays were conducted at 37 °C under an atmosphere of 5% CO2.
(§5) Assays were performed in sterile 96-well microtiter plates, each well containing 10 μL of the compound dilution and 190 μL of MRC5SV2 or PMM inoculum (3 × 10^4 cells/mL). Cell growth was compared to untreated controls (100% growth) and assay-media controls (0% growth). After three-day incubation, cell viability was assessed fluorometrically by adding resazurin (50 μL/well of a stock solution in phosphate buffer (50 μg/mL)), incubating for 4 h and measuring fluorescence (λex 550 nm, λem 590 nm). The results were expressed as a percentage reduction in cell growth compared to untreated control wells. […] Tamoxifen was included as the reference drug.

L. infantum [2] = experiment: Intramacrophage L. infantum assay; assay type: cell-based; details: Leishmania infantum; Table 2; geometric mean of at least three independent assays; read-out: intramacrophage L. infantum EC50
Protocol: (§6) L. infantum (MHOM/MA/67/ITMAP263) and L. donovani (MHOM/ET/67/L82) were maintained in the golden (Syrian) hamster (Mesocricetus auratus). Ex vivo amastigotes were collected from the spleen of an infected donor hamster using two centrifugation purification steps: 230g for 10 min, keeping the supernatant layer, and 4100g for 30 min, keeping the pellet. The spleen parasite burden was assessed using the Stauber technique.[25] For in vitro assays, the inoculum was prepared in RPMI-1640 medium, supplemented with 200 mM L-glutamine, 16.5 mM NaHCO3, and 5% inactivated fetal calf serum. For the in vivo model, an infection inoculum containing 2 × 10^7 amastigotes/100 μL was prepared in phosphate-buffered saline (PBS).
(§7) The assay was performed in sterile 96-well microtiter plates, each well containing 10 μL of the compound dilution and 190 μL of the PMM/amastigote inoculum (3 × 10^4 cells/4.5 × 10^5 parasites per well). Parasite multiplication was compared to untreated infected controls (100% growth) and uninfected controls (0% growth). After five-day incubation, total parasite burdens were microscopically assessed after staining the cells with a 10% Giemsa solution. The results were expressed as a percentage reduction in parasite burden compared to untreated control wells. EC50 values were determined using an extended dose range (2-fold compound dilutions, 8-point concentration curve). Miltefosine was used as the reference drug.[26] For selected compounds, this assay format was also run using the L. donovani inoculum.

L. donovani = experiment: Intramacrophage L. donovani assay; assay type: cell-based; details: Leishmania donovani; Table 2; geometric mean of at least three independent assays
Protocol: as §6, §7

[3] = tested on: wild-type L. donovani promastigotes; experiment: Drug sensitivity, wild-type L. donovani promastigotes; assay type: cell-based; details: Leishmania donovani
Protocol: as §1, §3

Trypanosoma brucei = tested on: Trypanosoma brucei; parameters: method as in PMID 21738803; details: in vitro; read-out: EC50 against Trypanosoma brucei; cited from earlier work
[4] = tested on: CPSF3-overexpressing L. donovani promastigotes; experiment: Drug sensitivity, CPSF3-overexpressing L. donovani promastigotes; assay type: cell-based; details: Leishmania donovani
Protocol: as §1, §2, §3

MRC5 cytotoxicity assay = assay type: cell-based; details: human, MRC5SV2 cells (human embryonic lung fibroblasts); Table 4; geometric mean of at least two independent tests
Protocol: as §4, §5

L. infantum [5] = experiment: L. infantum hamster model of VL; assay type: in vivo
Protocol: as §6
Female golden hamsters for the in vivo model of visceral leishmaniasis were purchased from Janvier, France (body weight 80–100 g). This study using laboratory rodents was carried out in strict accordance with all mandatory guidelines (EU directives, including the Revised Directive 2010/63/EU on the protection of Animals used for Scientific Purposes that came into force on 01/01/2013, and the declaration of Helsinki in its latest version) and was approved by the ethical committee of the University of Antwerp, Belgium (UA-ECD 2011-74). Female golden hamsters for the pharmacokinetic study were purchased from Vital River, Beijing, China. This study was conducted following institutional review and in accordance with institutional and national guidelines at WuXi AppTec (the Institutional Animal Care and Use Committee (IACUC)). Balb/c mice for the in vivo model of visceral leishmaniasis (LSHTM) were purchased from Charles River, U.K., and related studies were conducted under license PPL 70/8427 from the U.K. Home Office.
Female golden hamsters were randomly allocated to experimental groups of six animals each, based on body weight. At the start of the experiment (Day 0), each animal was infected with L. infantum or L. donovani inoculum, delivered by intracardial injection. Six hamsters were assigned to the vehicle-treated, infected control group. Six hamsters were assigned per group (1 group/compound) for the evaluation of compound and miltefosine. […] At Day 35 (10 days after the final oral dose), all animals were euthanized and autopsies were conducted. The study evaluated the following parameters. • 1. Adverse effects: all animals were observed daily for the occurrence/presence of adverse effects. • 2. Body weight: all animals were weighed twice per week to monitor general health. • 3. Parasite burden: amastigote burdens in each target organ (liver, spleen, and bone marrow) were determined at Day 35. The organs of individual animals were weighed (except for bone marrow). Impression smears were stained with Giemsa for microscopic examination of the total amastigote burden, defined as the mean number of amastigotes per cell multiplied by the number of cells counted (minimum 500 nuclei); the results were expressed as a percentage reduction in amastigote burden compared to vehicle-treated, infected control animals.

[6] = Liver microsome stability, human; assay type: in vitro ADME; details: human liver microsomes, pH 7.4, Table 4, read-out: HLM Clint
Protocol: Tests were performed by WuXi AppTec, China. Test compounds (at 1 μM) or positive controls (testosterone, propafenone, and diclofenac) were incubated at 37 °C with liver microsomes from Balb/c mouse, golden (Syrian) hamster, Sprague-Dawley rat, Beagle dog, or human in the presence of a NADPH regenerating system and phosphate buffer (100 mM, pH 7.4) at 0.4 or 0.8 mg/mL microsomal protein. The samples were removed at time intervals from 0 to 60, 90, or 120 min and immediately mixed with cold methanol supplemented or not with acid (3% formic acid) and centrifuged prior to analysis by LC-MS/MS using tolbutamide or propranolol as internal standards.

For `CC1(C)OB(O)c2cc(NC(=O)c3ccc(F)cc3C(F)(F)F)ccc21` [Compound 1, acoziborole, reference compound], the EC50 [1] was 11.7 ± 0.4 µM, the “fold reduction in susceptibility” value ([1]; promastigotes overexpressing mutated CPSF3) was 5 fold and the EC50 at 3 days (PMM cytotoxicity assay) was greater than 64 µM. The CC50 at 3 days (PMM cytotoxicity assay; supplement csv) was greater than 64 µM, the EC50 (L. infantum [2]) was greater than 64 µM and the EC50 (L. donovani) was 59 µM. For the same compound, the EC50 [3] was 2.5 ± 0.1 µM, the EC50 (Trypanosoma brucei) was 0.795 µM and the EC50 [4] was 2.8 ± 0.1 µM.

For `O=C(Nc1ccc2c(c1)B(O)OC2)c1ccc(F)cc1C(F)(F)F` [Compound 3], the CC50 at 3 days (MRC5 cytotoxicity assay) was greater than 64 µM, the EC50 [1] was 4.4 ± 0.2 µM and the “reduction in parasite burden, bone marrow” value (“reduction … bone marrow” below) (L. infantum [5]; 25 mg/kg QD for 5 days) was 81.6%. For the same compound, the “reduction in parasite burden, spleen” value (L. infantum [5]; 25 mg/kg QD for 5 days) was 81.8%, the “reduction in parasite burden, liver” value (L. infantum [5]; 25 mg/kg QD for 5 days, vs vehicle-treated infected controls) was 87.8% and the “reduction … bone marrow” value (L. infantum [5]; 50 mg/kg QD for 5 days) was 91.2%. For the same compound, the “reduction in parasite burden, liver” value (L. infantum [5]; 50 mg/kg QD for 5 days) was 97.4%, the “reduction in parasite burden, spleen” value (L. infantum [5]; 50 mg/kg QD for 5 days) was 95.0% and the “reduction … bone marrow” value (L. infantum [5]; 100 mg/kg QD for 5 days) was 88.3%. The “reduction in parasite burden, liver” value (L. infantum [5]; 100 mg/kg QD for 5 days) was 98.6%, the “reduction in parasite burden, spleen” value (L. infantum [5]; 100 mg/kg QD for 5 days) was 96.0% and the EC50 at 3 days (PMM cytotoxicity assay) was greater than 64 µM. For the same compound, the CC50 at 3 days (PMM cytotoxicity assay; Table 4, geometric mean of at least two independent tests) was greater than 64 µM, the EC50 (L. infantum [2]) was 2.7 µM and the EC50 (L. donovani) was 1.2 µM. For the same compound, the microsomal CLint at 2 h, 1 µM [6] was 0.8 µL/min/mg, the EC50 [3] was 1.2 ± 0.02 µM and the EC50 [4] was 1.4 ± 0.03 µM.
